Structures are written as SMILES.

Test [1] has as its target T1, human adenosine A2A receptor (Homo sapiens, UniProt P29274).
T1 construct: expressed in transfected cells; host or cells: HEK293 cells (HEK293hA2AR), from Dr. J. Wang (Biogen/IDEC); membrane preparation
Briefly: Radioligand displacement assay, human adenosine A2A receptor ([3H]ZM241385, HEK293hA2AR membranes). The class given is binding. As to conditions: n = 3; for A2A displacement at 10 µM: test compound 10 µM. How it is done: (§1) Human embryonic kidney 293 cells stably expressing the human adenosine A2A receptor (HEK293hA2AR) were kindly provided by Dr. J. Wang (Biogen/IDEC, Cambridge, MA, USA), CHO-spap cells stably expressing the wild-type (WT) hA2B receptor (CHO-spap-hA2BR) were kindly provided by S. J. Dowell (GlaxoSmithKline, Brentfort, UK).
(§2) All cells were grown to 80–90% confluency and detached from plates by scraping them into 5 mL phosphate-buffered saline. Detached cells were collected and centrifuged at 200 g for 5 min. Pellets derived from 100 15 cm Ø plates were pooled and resuspended in 70 mL of ice-cold 50 mM tris(hydroxymethyl)aminomethane (Tris)-HCl buffer, pH 7.4. A Heidolph Diax 900 homogenizer was used to homogenize the cell suspension. Membranes and the cytosolic fraction were separated by centrifugation at 100,000 g in a Beckman Optima LE-80 K ultracentrifuge (Beckman Coulter, Fullerton, CA, USA) at 4 °C for 20 min. The pellet was resuspended in 35 mL of the Tris-HCl buffer, and the homogenization and centrifugation steps were repeated. Tris-HCl buffer (25 mL) was used to resuspend the pellet, and adenosine deaminase (ADA) was added (0.8 U/mL) to break down endogenous adenosine. Membranes were stored in 250 µL and 500 µL aliquots at −80 °C. Total protein concentrations were measured using the bicinchoninic acid (BCA) method.
Nonspecific binding was determined in the presence of 100 µM adenosine-5-N-ethyluronamide (NECA). Incubations were terminated by rapid vacuum filtration to separate the bound and free radioligand through prewetted 96-well GF/B filter plates using a PerkinElmer Filtermate-harvester (Perkin Elmer, Groningen, The Netherlands). Filters were subsequently washed 12 times with ice-cold 50 mM Tris-HCl, pH 7.4.
(§3) The plates of all four adenosine receptor assays were dried at 55 °C after which MicroscintTM-20-cocktail was added (Perkin Elmer, Groningen, The Netherlands).
(§4) All experimental data were analyzed using the non-linear regression curve fitting program GraphPad Prism 7.0 (GraphPad Software Inc., San Diego, CA, USA). IC50 values obtained from competition displacement binding data were converted into Ki values using the Cheng–Prusoff equation.
In general terms: In a radioligand displacement assay an active substance lowers the binding of a labelled ligand.

The target of another test is T2, hA2B receptor (Homo sapiens, UniProt P29275).
T2 construct: expressed in transfected cells; host or cells: CHO-spap cells (CHO-spap-hA2BR), from S. J. Dowell (GlaxoSmithKline); membrane preparation
T2 sequence (P29275 1-332): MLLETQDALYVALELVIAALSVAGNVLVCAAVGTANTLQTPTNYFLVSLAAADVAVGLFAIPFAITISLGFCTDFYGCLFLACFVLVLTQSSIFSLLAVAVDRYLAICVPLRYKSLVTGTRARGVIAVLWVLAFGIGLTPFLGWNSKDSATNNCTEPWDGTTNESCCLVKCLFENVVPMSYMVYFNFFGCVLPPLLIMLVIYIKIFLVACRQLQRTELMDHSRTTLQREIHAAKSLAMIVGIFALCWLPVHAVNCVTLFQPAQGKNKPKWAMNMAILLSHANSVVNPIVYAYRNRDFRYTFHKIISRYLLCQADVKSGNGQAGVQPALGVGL
Briefly: Radioligand displacement assay, human adenosine A2B receptor ([3H]PSB-603, CHO-spap-hA2BR membranes). As to conditions: n = 3; for Ki: [3H]PSB-603, read-out: A2B Ki ± SEM. The test is classed as binding. Here is the method:
as §1
Chinese hamster ovary cells stably expressing the […] and a reporter gene, the secreted placental alkaline phosphatase, (CHO-spap-hA2BR) were grown in DMEM and Ham’s F12 medium (1:1) supplemented with 10% (v/v) newborn calf serum, 100 µg/mL streptomycin, 100 IU/mL penicillin, 1 mg/mL G418, and 0.4 mg/mL hygromycin at 37 °C and 5% CO2.
as §2
A2B Receptor: Membrane aliquots containing 30 µg (CHO-spap-hA2BR) total protein were incubated in a total volume of 100 µL assay buffer (0.1% CHAPS in 50 mM TrisHCl, pH 7.4) at 25 °C for 2 h. […] Nonspecific binding was determined in the presence of 10 µM ZM241385. Incubations were terminated by rapid vacuum filtration to separate the bound and free radioligand through prewetted 96-well GF/B filter plates using a PerkinElmer Filtermate-harvester (Perkin Elmer, Groningen, the Netherlands). Filters were subsequently washed 12 times with ice-cold 0.1% BSA in 50 mM Tris-HCl, pH 7.4.
as §3, §4

T1 sequence (P29274 whole entry): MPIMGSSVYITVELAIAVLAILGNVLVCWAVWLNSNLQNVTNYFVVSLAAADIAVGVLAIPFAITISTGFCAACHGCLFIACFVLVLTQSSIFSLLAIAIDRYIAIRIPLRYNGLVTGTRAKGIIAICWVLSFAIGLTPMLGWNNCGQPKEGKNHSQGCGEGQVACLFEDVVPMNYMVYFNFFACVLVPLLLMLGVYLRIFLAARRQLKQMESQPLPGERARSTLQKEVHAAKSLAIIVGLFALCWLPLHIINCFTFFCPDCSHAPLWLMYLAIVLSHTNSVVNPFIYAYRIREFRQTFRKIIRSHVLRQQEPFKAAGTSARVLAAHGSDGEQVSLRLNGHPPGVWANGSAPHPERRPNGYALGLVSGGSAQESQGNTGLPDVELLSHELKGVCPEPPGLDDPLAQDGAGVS

In the case of `OC[C@@]12C[C@@H]1[C@@H](n1cnc3c(N(Cc4ccccc4)Cc4ccccc4)ncnc31)[C@H](O)[C@@H]2O` [Compound 26, (1R,2R,3S,4R,5S)-4-[6-(Dibenzylamino)-9H-purin-9-yl]-1-(hydroxymethyl)bicyclo[3.1.0]hexane-2,3-diol], the “A2A displacement at 10 µM” value in test [1] turned out to be 9%. For the same compound, the “A2B displacement at 10 µM” value on hA2B receptor (test compound 10 µM) was 12%.
As to `OC[C@@]12C[C@@H]1[C@@H](n1cnc3c(N(Cc4ccccc4)Cc4ccccc4)nc(Cl)nc31)[C@H](O)[C@@H]2O` [Compound 27, (1R,2R,3S,4R,5S)-4-[6-(Dibenzylamino)-2-chloro-9H-purin-9-yl]-1-(hydroxymethyl)bicyclo[3.1.0]hexane-2,3-diol], the Ki in test [1] ([3H]ZM241385, read-out: A2A Ki ± SEM) is above 10 µM; on hA2B receptor, above 10 µM.
For `CSc1nc(N)c2ncn([C@H]3[C@H](O)[C@H](O)[C@]4(Cn5cc(CO)nn5)C[C@H]34)c2n1` [Compound 39, (1R,2R,3S,4R,5S)-4-(6-Amino-2-methylthio-9H-purin-9-yl)-1-{[4-(hydroxymethyl)-1H-1,2,3-triazol-1-yl]methyl}bicyclo[3.1.0]hexane-2,3-diol], in test [1], the “A2A displacement at 10 µM” value is reported as 11%. On hA2B receptor, the inhibitory constant (Ki) was above 10 µM.
The like results for `COC(=O)CCc1cn(C[C@@]23C[C@@H]2[C@@H](n2cnc4c(N)nc(SC)nc42)[C@H](O)[C@@H]3O)nn1` [Compound 42, Methyl 3-(1-{[(1R,2R,3S,4R,5S)-4-(6-amino-2-methylthio-9H-purin-9-yl)-2,3-dihydroxybicyclo[3.1.0]hex-1-yl]methyl}-1H-1,2,3-triazol-4-yl)propanoate] were, in that order, 29% and above 10 µM.

A word on the Ki: it is a dissociation constant, usually derived from enzyme kinetics or from competition with a known ligand.

These data come from publication PMC9000336, “Development of Bicyclo[3.1.0]hexane-Based A3 Receptor Ligands: Closing the Gaps in the Structure–Affinity Relationships” (Molecules, 2022).
